For 21 compounds, Activity and IC50 results are on record in ChEMBL document CHEMBL4334515, “Lignans from Saururus chinensis with Inhibitory Effects on Nitric Oxide Production” (J Nat Prod, 2019).

The test system of series [1] is RAW264.7. Description: Cytotoxicity against mouse RAW264.7 cells assessed as effect on cell viability at 10 uM by CCK-8 assay. It counts as cell-based. The settings on record: raw264.7, 10 µM.
Series [2] has as its system RAW264.7. Description: Inhibition of LPS-induced NO production in mouse RAW264.7 cells incubated for 24 hrs in presence of LPS by Griess reagent based assay. It counts as functional, cell-based. The settings on record: RAW264.7, 24 h.

Consider `C=CCc1cc(OC)c(O[C@H](C)[C@H](O)c2cc(OC)c(OC)c(OC)c2)c(OC)c1`, for which the Activity result in the series with RAW264.7 [1] is recorded as “Non-Toxic”. Moreover, the IC50 with RAW264.7 [2] came out at 46.1 µM.

Regarding `C/C=C/c1cc(OC)c(O[C@H](C)[C@H](OC(C)=O)c2cc(OC)c(OC)c(OC)c2)c(OC)c1`, the Activity result with RAW264.7 [1] is “Non-Toxic”. Besides, the IC50 in the series with RAW264.7 [2] worked out at 16.9 µM.

Consider `CC(Cc1ccc2c(c1)OCO2)[C@H](C)Cc1ccc2c(c1)OCO2` (stereo not given in full), for which the Activity entry in the series on RAW264.7 [1] was “Non-Toxic”. Further, the half-maximal inhibitory concentration (IC50) in the series with RAW264.7 [2] worked out at 16.5 µM.

As for `C=CCc1cc(OC)c(O[C@H](C)[C@H](OC(C)=O)c2cc(OC)c(OC)c(OC)c2)c(OC)c1`, the Activity result in the series on RAW264.7 [1] is given as “Non-Toxic”. In the series with RAW264.7 [2], the IC50 came out at 10.4 µM.

Regarding `C=CCc1cc(OC)c(OC)c(OC)c1`, the Activity entry in the series with RAW264.7 [1] was “Non-Toxic”. In addition, the IC50 with RAW264.7 [2] is greater than 50 µM.

For the compound `N=C(N)NN` [PIMAGEDINE], the IC50 in the series with RAW264.7 [2] is 25.5 µM.

Regarding `C=CCc1cc(OC)c(O[C@@H](C)[C@@H](OC(C)=O)c2cc(OC)c3c(c2)OCO3)c(OC)c1`, the Activity entry with RAW264.7 [1] was “Non-Toxic”. Further, the IC50 with RAW264.7 [2] turned out to be 23.7 µM.

On to `C/C=C/c1cc(OC)c(O[C@@H](C)C(=O)c2cc(OC)c(OC)c(OC)c2)c(OC)c1`, for which the Activity entry in the series on RAW264.7 [1] is reported as “Non-Toxic”. In addition, the IC50 with RAW264.7 [2] came out at 14 µM.

`C[C@H](Cc1cc2c(cc1O)OCO2)[C@H](C)Cc1cc2c(cc1O)OCO2`: the Activity entry in the series with RAW264.7 [1] was “Non-Toxic”. Also, the IC50 with RAW264.7 [2] worked out at 42.4 µM.

With `CC(C(=O)c1ccc2c(c1)OCO2)[C@H](C)Cc1ccc2c(c1)OCO2` (stereo not given in full), the Activity result in the series with RAW264.7 [1] is given as “Non-Toxic”. Besides, in the series on RAW264.7 [2], the IC50 is greater than 50 µM.

As to `C[C@@H]([C@H](C)[C@H](O)c1ccc2c(c1)OCO2)[C@H](O)c1ccc2c(c1)OCO2` [SAUCERNEOL I], the Activity result in the series with RAW264.7 [1] is recorded as “Non-Toxic”. Also, in the series on RAW264.7 [2], the IC50 was greater than 50 µM.

As for `COC/C=C/c1ccc(O[C@@H](C)C(=O)c2cc(OC)c(OC)c(OC)c2)c(OC)c1`, the Activity entry in the series with RAW264.7 [1] was “Non-Toxic”. For the same compound, in the series on RAW264.7 [2], the IC50 was determined as 8.6 µM.

As to `C[C@H](Cc1ccc2c(c1)OCO2)[C@H](C)Cc1cc2c(cc1O)OCO2` (relative stereo), in the series on RAW264.7 [1], the Activity result was “Non-Toxic”. Also, the IC50 in the series on RAW264.7 [2] amounted to 41.4 µM.

As to `C[C@H]1[C@@H]2c3cc4c(cc3O[C@]35OCOC3=CC(=O)[C@@H](C[C@@H]1C)[C@@H]25)OCO4`, the Activity result with RAW264.7 [1] is reported as “Non-Toxic”. Also, in the series with RAW264.7 [2], the IC50 was greater than 50 µM.

Regarding `C/C=C/c1ccc(O[C@@H](C)[C@@H](O)c2ccc(O)c(OC)c2)c(OC)c1` [MACHILIN D], the Activity result in the series on RAW264.7 [1] is “Non-Toxic”. In addition, in the series with RAW264.7 [2], the half-maximal inhibitory concentration (IC50) worked out at 21.1 µM.

Consider `C[C@H]1[C@@H]2c3cc4c(cc3O[C@]35OCOC3=CC(=O)[C@@H](C[C@@H]1C)[C@H]25)OCO4`, for which, in the series with RAW264.7 [1], the Activity result is given as “Non-Toxic”. Besides, in the series on RAW264.7 [2], the IC50 came out at 9.2 µM.

Turning to `C[C@H]1[C@@H]2c3cc4c(cc3O[C@]35OCOC3=CC(=O)[C@H](C[C@@H]1C)[C@H]25)OCO4`, in the series with RAW264.7 [1], the Activity result was “Non-Toxic”. In the series on RAW264.7 [2], the IC50 amounted to 5.6 µM.

With `COC/C=C/c1cc(OC)c(O[C@@H](C)[C@@H](O)c2cc(OC)c3c(c2)OCO3)c(OC)c1`, in the series on RAW264.7 [1], the Activity entry is on record as “Non-Toxic”. Moreover, in the series on RAW264.7 [2], the IC50 is 35.5 µM.

Regarding `COc1cc([C@@H]2OC(=O)O[C@H]2C)cc(OC)c1C`, the Activity entry with RAW264.7 [1] was “Non-Toxic”. Moreover, in the series on RAW264.7 [2], the IC50 was determined as 40.1 µM.

In the case of `COc1cc(C[C@@H](C)[C@@H](C)Cc2ccc(O)c(OC)c2)ccc1O` [MESODIHYDROGUAIARETIC ACID], the Activity entry in the series on RAW264.7 [1] was “Non-Toxic”. The IC50 in the series on RAW264.7 [2] was determined as 20.3 µM.

For `COC1=CC(=O)C2=C(C1=O)[C@@H](c1cc3c(cc1O)OCO3)[C@H](C)[C@@H](C)C2`, in the series with RAW264.7 [1], the Activity entry was “Toxic”.
